According to US10525269B2, “Methods for improving heart function” (THE JOHNS HOPKINS UNIVERSITY, priority 2010, dated 2020):
Entries after “also recorded” stand apart in the source; their conditions may differ.

What was measured:
[1] = Pearce (2009); cited from earlier work
isolated myocytes = assay: Myocyte sarcomere shortening and whole-cell calcium transients; type: cell-based, dog; design: effect of PTX on zinterol-stimulated shortening and Ca2+ transients: dose or concentration left out as unconfirmed
Protocol: Myocyte sarcomere shortening and whole-cell calcium transients were assessed with an inverted microscope (Ellipse TE2001, Nikon) equipped with an image-fluorescence system (MyoCam, IonOptix).
Adenovirus-mediated gene transfer of GFP, RGS2, or RGS3 was implemented by adding a minimal volume of the FBS-free MEM containing the gene-carrying adenovirus (100 multiplicities of infection). The full volume of FBS-free MEM was supplied after culture for another 1 to 2 hours. RGS expression and myocyte functional changes were assessed at 24 hours after transfection.

cAMP = assay: Membrane-localized cAMP FRET probe (ICUE3) in isolated myocytes; type: cell-based, dog; settings: in presence of IBMX
Description: Adult myocytes were infected with an adenovirus expressing either the modified EPAC-based cAMP FRET sensor (ICUE3) (DiPilato et al. (1999) J Biol Chem. 274:22048-22052) or SR-localized PKA activity sensor SR-AKAR3 (Liu et al. (2011) Biochem Biophys Res Commun. 404:581-586). Just before study, cells were washed two times with Hanks' balanced salt solution and imaged at room temperature in the dark. Dual-emission ratio imaging used a 420DF20 excitation filter, a 450DRLP dichroic mirror, and two emission filters (475DF40 for cyan fluorescent protein and 535DF25 for yellow fluorescent protein) and was performed on a Zeiss Axiovert 200 M microscope with a MicroMAX BFT512 cooled charge-coupled device camera (Roper Scientific) controlled by MetaFluor 6.2 software (Universal Imaging). […]
To further clarify the nature of the altered β2-AR signalling, studies were performed in isolated myocytes infected with an adenovirus containing a plasma membrane-targeted adenosine 3′,5′-monophosphate (cAMP)-sensitive fluorescence resonance energy transfer (FRET) probe (ICUE3) based on the EPAC1 (exchange protein directly activated by cAMP 1) binding domain (FIG. 6A; DiPilato et al. (1999) J Biol Chem. 274:22048-22052). […]

PKA = assay: SR-localized PKA activity FRET sensor (SR-AKAR3) in myocytes; type: cell-based, dog
Description: Adult myocytes were infected with an adenovirus expressing either the modified EPAC-based cAMP FRET sensor (ICUE3) (DiPilato et al. (1999) J Biol Chem. 274:22048-22052) or SR-localized PKA activity sensor SR-AKAR3 (Liu et al. (2011) Biochem Biophys Res Commun. 404:581-586). Just before study, cells were washed two times with Hanks' balanced salt solution and imaged at room temperature in the dark. Dual-emission ratio imaging used a 420DF20 excitation filter, a 450DRLP dichroic mirror, and two emission filters (475DF40 for cyan fluorescent protein and 535DF25 for yellow fluorescent protein) and was performed on a Zeiss Axiovert 200 M microscope with a MicroMAX BFT512 cooled charge-coupled device camera (Roper Scientific) controlled by MetaFluor 6.2 software (Universal Imaging). Fluorescent images (taken every 20 to 30 s) were background-corrected by subtracting autofluorescence intensities of untransfected cells (or background with no cells) from the emission intensities of cells expressing reporters.
To further clarify the nature of the altered β2-AR signalling, studies were performed in isolated myocytes infected with an adenovirus containing a plasma membrane-targeted adenosine 3′,5′-monophosphate (cAMP)-sensitive fluorescence resonance energy transfer (FRET) probe (ICUE3) based on the EPAC1 (exchange protein directly activated by cAMP 1) binding domain (FIG. 6A; DiPilato et al. (1999) J Biol Chem. 274:22048-22052). After 24 hours, cells were stimulated with either zinterol or fenoterol, each in the presence of a broad-spectrum phosphodiesterase (PDE) inhibitor, IBMX. […] Previous studies have proposed that reduced Gαi coupling to the β2-AR can modify the targeting of cAMP, resulting in enhanced protein kinase A (PKA) activation of sarcoplasmic reticulum (SR) calcium handling proteins and thus augmentation of the Ca^2+ and associated myocyte shortening (Kuschel et al. (1999) J. Biol. Chem. 274:22048-22052).

In the case of `CC(Cc1ccc(O)cc1)NCC(O)c1cc(O)cc(O)c1` (single isomer, unassigned) [fenoterol as a mixture of R,R-enantiomer and S,S-enantiomer, fenoterol], the “mortality in asthma use” value [1] is given as “worsened death”.
For `CC(Cc1ccc(O)cc1)NCC(O)c1cc(O)cc(O)c1` (stereo not shown) [fenoterol], the “fenoterol response compared with zinterol alone” value (isolated myocytes; HFdys and HFsyn) was “augmented over zinterol alone”, the “fenoterol-stimulated cAMP response (FRET ratio)” value (cAMP; all groups) was “all responded similarly; also recorded: similarly elevated response” and the “PKA activation at the SR” value (PKA; cells from all models) was “PKA activation was detected”. For the same compound, the “PKA activation at the SR” value (PKA; cells from all models, listed as Fenoterol) was “stimulated PKA at the SR in all models”.
For `CC(C)NCC(O)c1ccc(O)c(O)c1` (stereo not shown) [isoproterenol], the “isoproterenol-stimulated shortening, relaxation, and peak calcium” value (isolated myocytes; AVA myocytes, compared with CRT) was “similar”, the “isoproterenol-stimulated sarcomere shortening and relengthening, peak Ca2+ transient and decay rate” value (isolated myocytes; myocytes from HFdys or HFsyn) was “equally depressed; also recorded: markedly and similarly depressed” and the “isoproterenol-stimulated sarcomere shortening and relengthening, peak Ca2+ transient and decay rate” value (isolated myocytes; myocytes from resynchronization models (CRT, V3A3)) was “back to near-control levels; also recorded: returned to control levels”.
In the case of `CC(C)(Cc1ccccc1)NCC(O)c1ccc(O)c(NS(C)(=O)=O)c1` (stereo not shown) [zinterol], the response to zinterol (isolated myocytes; AVA cells) was “responded robustly”, the “shortening and Ca2+ transient response to zinterol” value (isolated myocytes; cells from resynchronized hearts) was “enhanced responses” and the “zinterol-stimulated cAMP increase (FRET ratio)” value (cAMP; resynchronization models vs other groups incl. control) was “exceeded that in the other groups; also recorded: greater response”. The “PKA activation at the SR” value (PKA; CRT cells) was “activation was detectable; also recorded: showed PKA activation” and the “PKA stimulation detected at the SR” value (PKA; myocytes from HFdys or HFsyn) was “negligible PKA stimulation”.
In the case of pertussis toxin [PTX], the “effect of PTX on zinterol-stimulated functional or Ca2+ response” value (isolated myocytes; AVA myocytes) was “not further altered; also recorded: minimal augmentation”, the “effect of PTX pretreatment on isoproterenol-stimulated sarcomere shortening (% SS) and whole-cell calcium transient” value (isolated myocytes; HFdys and HFsyn) was “greatly enhanced both behaviors” and the “effect of PTX on zinterol-stimulated shortening and Ca2+ transients” value (isolated myocytes; cells from HFdys and HFsyn) was “greatly amplified the response; also recorded: marked augmentation”. The “effect of PTX on zinterol-stimulated shortening and Ca2+ transients” value (isolated myocytes; cells from resynchronized hearts (CRT, V3A3)) was “little changed”, the “effect of PTX on zinterol-stimulated shortening and Ca2+ transients” value (isolated myocytes; control myocytes) was “augmented zinterol-stimulated shortening and Ca^2+ transients slightly” and the “effect of PTX pretreatment on isoproterenol-stimulated sarcomere shortening (% SS) and whole-cell calcium transient” value (isolated myocytes; resynchronized models) was “no impact”.
